System: large diameter neurons cultured from DRGs of Mecp2 and Shank3 mutant mice
Assay: Whole cell patch-clamp recordings of cultured DRG neurons
Format: cell-based, mouse
Conditions: 10 μM isoguvacine
Description: FIGS. 27A-27K are related to FIGS. 19A-19N. FIGS. 27A-27B: Representative traces from large diameter neurons cultured from DRGs of control (FIG. 27A) and Mecp2^STOP/y (FIG. 27B) mice during whole cell current clamp recordings, in which the minimal amount of current required to elicit an action potential in each neuron (rheobase, Rh), was determined in the absence or presence of 10 μm isoguvacine. FIG. 27C: Quantification of average Rh in large diameter neurons cultured from DRGs of control mice during a baseline period and then in presence of 10 μm isoguvacine. Repeated measures one-way ANOVA, post-hoc Tukey's test, *, p<0.05. FIG. 27D: Quantification of average Rh in large diameter neurons cultured from DRGs of control mice during a baseline period, followed application of 10 μm isoguvacine, then washout period. […] FIG. 27E: Quantification of average Rh in large diameter neurons cultured from DRGs of control and Mecp2^STOP/y mice during a baseline period and then in presence of 10 μm isoguvacine. […] FIG. 27F: Quantification of average Rh in large diameter neurons cultured from DRGs of control and Shank3B^+/− mice during a baseline period and then in presence of 10 μm isoguvacine. […] FIG. 27G: Quantification of total Ih density at each hyperpolarizing voltage step for large diameter neurons cultured from DRGs of control, Mecp2^STOP/y and Shank3B^+/− mutant mice. […]

With `O=C(O)C1=CCNCC1` [Isoguvacine, isoguvacine] the Ih (large diameter DRG neurons) was “without affecting Ih” and the “hyperexcitability phenotype (rheobase) of large diameter DRG neurons” value (neurons from Mecp2 and Shank3 mutant mice) was “reduced the hyperexcitability phenotype”.
